Reference: the NIST ThermoML archive (doi:10.1021/acs.jced.7b00995)

Columns and labels:
[1] = xn = mol fraction of the nth substance listed; details: Liquid, Vibrating tube method
[2] = 313.15 K, Liquid, Vibrating tube method

CCCCCCCCCCCCCCC [pentadecane] + O=C=O
mass density [kg/m3], [1]
Details	x2 = 0.376	x2 = 0.562	x2 = 0.757
313.15 K, 6.36 kPa	–	779.4	–
313.15 K, 6.91 kPa	770	–	–
313.15 K, 8.8 kPa	–	–	798.3
313.15 K, 11.29 kPa	–	–	804.2
313.15 K, 13.85 kPa	–	–	810.2
313.15 K, 20.79 kPa	784	796.8	828.1
313.15 K, 34.67 kPa	795.8	808.8	843.2
313.15 K, 55.49 kPa	809	829	867.8
313.15 K, 76.31 kPa	825.4	841.5	885.9
363.15 K, 6.94 kPa	725.3	–	–
363.15 K, 10.73 kPa	–	730.3	–
363.15 K, 17.13 kPa	–	–	738.8
363.15 K, 20.82 kPa	744.5	745.5	749.2
363.15 K, 34.7 kPa	754.3	768.8	780
363.15 K, 55.52 kPa	775.6	784.7	812.3
363.15 K, 76.34 kPa	787	800.8	831.7
410.15 K, 13.9 kPa	–	686.5	–
410.15 K, 13.91 kPa	693.8	–	–
410.15 K, 20.85 kPa	702.6	701.8	–
410.15 K, 21.95 kPa	–	–	682.7
410.15 K, 27.79 kPa	–	–	702
410.15 K, 34.73 kPa	723.3	724.9	723.5
410.15 K, 55.55 kPa	742.3	749.5	763.8
410.15 K, 76.37 kPa	757.3	769.3	796.1

CCCCCCCCCCCCCCC [pentadecane]
[2]
Details	mass density [kg/m3]
100 kPa	752.2
6910 kPa	757.8
20790 kPa	766.9
34670 kPa	776.1
55490 kPa	787.5
76930 kPa	797.3
